Assay results as given in ChEMBL document CHEMBL4732202, “Identification and Profiling of a Novel Diazaspiro[3.4]octane Chemical Series Active against Multiple Stages of the Human Malaria Parasite Plasmodium falciparum and Optimization Efforts” (J Med Chem, 2021).

Experiment: Volume of distribution in Balb/c mouse at 3 mg/kg, iv measured upto 24 hrs by LC-MS/MS analysis
Format: ADME, organism-based
Settings: in vivo

Vd [L/kg]	SMILES
22	O=C(Cc1ccc(O)cc1)N1CC(CNc2ccccc2)C2(C1)CN(c1ccc(F)cc1)C2 (centres undefined)
20.7	Nc1ccc(C[C@@H](N)C(=O)N2CC(CNc3ccc(F)cc3)C3(C2)CN(c2cc(F)cc(F)c2)C3)cc1 (mixture of isomers)
23.5	N[C@H](C(=O)N1CC(CNc2ccc(F)cc2)C2(C1)CN(c1cc(F)cc(F)c1)C2)c1ccc(O)cc1 (mixture of isomers; form 1)

Experiment: AUC (0 to infinity) in Balb/c mouse at 3 mg/kg, iv measured upto 24 hrs by LC-MS/MS analysis
Format: ADME, organism-based
Set-up: route intravenous, dose 3 mg/kg, time <=24
Settings: in vivo

AUC(0-inf) [nM·h]	SMILES
1820	O=C(Cc1ccc(O)cc1)N1CC(CNc2ccccc2)C2(C1)CN(c1ccc(F)cc1)C2 (centres undefined)
2480	Nc1ccc(C[C@@H](N)C(=O)N2CC(CNc3ccc(F)cc3)C3(C2)CN(c2cc(F)cc(F)c2)C3)cc1 (mixture of isomers)
3000	N[C@H](C(=O)N1CC(CNc2ccc(F)cc2)C2(C1)CN(c1cc(F)cc(F)c1)C2)c1ccc(O)cc1 (mixture of isomers; form 1)

Experiment: Unbound AUC in Balb/c mouse at 20 mg/kg, po measured upto 24 hrs by LC-MS/MS analysis
Format: ADME, organism-based
Settings: in vivo

fAUC [µmol·min/L]	SMILES
3	O=C(Cc1ccc(O)cc1)N1CC(CNc2ccccc2)C2(C1)CN(c1ccc(F)cc1)C2 (centres undefined)
2	Nc1ccc(C[C@@H](N)C(=O)N2CC(CNc3ccc(F)cc3)C3(C2)CN(c2cc(F)cc(F)c2)C3)cc1 (mixture of isomers)
3	N[C@H](C(=O)N1CC(CNc2ccc(F)cc2)C2(C1)CN(c1cc(F)cc(F)c1)C2)c1ccc(O)cc1 (mixture of isomers; form 1)
65.4	CC1(C)c2nc(-c3ccc(F)cc3)c(Nc3ccc(F)cc3)n2CCN1C(=O)CN [GANAPLACIDE]
4452	CS(=O)(=O)c1ccc(-c2cnc(N)c(-c3ccc(C(F)(F)F)nc3)c2)cc1 [MMV-048]

Experiment: Oral bioavailability in Balb/c mouse at 10 mg/kg measured upto 24 hrs by LC-MS/MS analysis
Format: ADME, organism-based
Settings: in vivo

bioavailability [%]	SMILES
10	O=C(Cc1ccc(O)cc1)N1CC(CNc2ccccc2)C2(C1)CN(c1ccc(F)cc1)C2 (centres undefined)
8	Nc1ccc(C[C@@H](N)C(=O)N2CC(CNc3ccc(F)cc3)C3(C2)CN(c2cc(F)cc(F)c2)C3)cc1 (mixture of isomers)
< 1	N[C@H](C(=O)N1CC(CNc2ccc(F)cc2)C2(C1)CN(c1cc(F)cc(F)c1)C2)c1ccc(O)cc1 (mixture of isomers; form 1)
74	CC1(C)c2nc(-c3ccc(F)cc3)c(Nc3ccc(F)cc3)n2CCN1C(=O)CN [GANAPLACIDE]
> 100	CS(=O)(=O)c1ccc(-c2cnc(N)c(-c3ccc(C(F)(F)F)nc3)c2)cc1 [MMV-048]

Experiment: Half life in human liver microsomes at 0.1 uM in presence or absence of NADPH by LC-MS/MS analysis
Format: ADME, Microsome
Settings: not given

half-life at 0.1 µM [min]	SMILES
34	N[C@H](Cc1ccc(O)cc1)C(=O)N1CC(CNc2ccc(F)cc2)C2(C1)CN(c1cc(F)cc(F)c1)C2 (mixture of isomers)
25	N[C@@H](C(=O)N1CC(CNc2ccc(F)cc2)C2(C1)CN(c1cc(F)cc(F)c1)C2)c1ccc(O)cc1 (mixture of isomers)
150	Nc1ccc(C[C@@H](N)C(=O)N2CC(CNc3ccc(F)cc3)C3(C2)CN(c2cc(F)cc(F)c2)C3)cc1 (mixture of isomers)
6	C[C@@H](C(=O)N1CC(CNc2ccc(F)cc2)C2(C1)CN(c1cc(F)cc(F)c1)C2)c1ccc(O)cc1 (mixture of isomers)
9	O=C([C@@H](O)c1ccc(O)cc1)N1CC(CNc2ccc(F)cc2)C2(C1)CN(c1cc(F)cc(F)c1)C2 (mixture of isomers)
6	C[C@H](C(=O)N1CC(CNc2ccc(F)cc2)C2(C1)CN(c1cc(F)cc(F)c1)C2)c1ccc(O)cc1 (mixture of isomers)
6.8	O=C([C@H](O)c1ccc(O)cc1)N1CC(CNc2ccc(F)cc2)C2(C1)CN(c1cc(F)cc(F)c1)C2 (mixture of isomers)
150	N[C@H](C(=O)N1CC(CNc2ccc(F)cc2)C2(C1)CN(c1cc(F)cc(F)c1)C2)c1ccc(O)cc1 (mixture of isomers; form 1)
46	O=C(Cc1cc(F)c(O)c(F)c1)N1CC(CNc2ccc(F)cc2)C2(C1)CN(c1ccc(F)cc1)C2 (racemic)
150	O=C(CN1CCC(O)CC1)N1CC(CNc2ccc(F)cc2)C2(C1)CN(c1ccc(F)cc1)C2 (racemic)

Experiment: Blood clearance in Balb/c mouse at 3 mg/kg, iv measured upto 24 hrs by LC-MS/MS analysis
Format: ADME, organism-based
Settings: whole blood

clearance [L/h/kg]	SMILES
3.78	O=C(Cc1ccc(O)cc1)N1CC(CNc2ccccc2)C2(C1)CN(c1ccc(F)cc1)C2 (centres undefined)
2.44	Nc1ccc(C[C@@H](N)C(=O)N2CC(CNc3ccc(F)cc3)C3(C2)CN(c2cc(F)cc(F)c2)C3)cc1 (mixture of isomers)
2.02	N[C@H](C(=O)N1CC(CNc2ccc(F)cc2)C2(C1)CN(c1cc(F)cc(F)c1)C2)c1ccc(O)cc1 (mixture of isomers; form 1)
2.27	CC1(C)c2nc(-c3ccc(F)cc3)c(Nc3ccc(F)cc3)n2CCN1C(=O)CN [GANAPLACIDE]
0.18	CS(=O)(=O)c1ccc(-c2cnc(N)c(-c3ccc(C(F)(F)F)nc3)c2)cc1 [MMV-048]

Experiment: Half life in rat liver microsomes at 0.1 uM in presence or absence of NADPH by LC-MS/MS analysis
Format: ADME, Microsome
Settings: not given

half-life at 0.1 µM [min]	SMILES
24	N[C@H](Cc1ccc(O)cc1)C(=O)N1CC(CNc2ccc(F)cc2)C2(C1)CN(c1cc(F)cc(F)c1)C2 (mixture of isomers)
44	N[C@@H](C(=O)N1CC(CNc2ccc(F)cc2)C2(C1)CN(c1cc(F)cc(F)c1)C2)c1ccc(O)cc1 (mixture of isomers)
150	Nc1ccc(C[C@@H](N)C(=O)N2CC(CNc3ccc(F)cc3)C3(C2)CN(c2cc(F)cc(F)c2)C3)cc1 (mixture of isomers)
6	C[C@@H](C(=O)N1CC(CNc2ccc(F)cc2)C2(C1)CN(c1cc(F)cc(F)c1)C2)c1ccc(O)cc1 (mixture of isomers)
6.7	O=C([C@@H](O)c1ccc(O)cc1)N1CC(CNc2ccc(F)cc2)C2(C1)CN(c1cc(F)cc(F)c1)C2 (mixture of isomers)
4	C[C@H](C(=O)N1CC(CNc2ccc(F)cc2)C2(C1)CN(c1cc(F)cc(F)c1)C2)c1ccc(O)cc1 (mixture of isomers)
7.9	O=C([C@H](O)c1ccc(O)cc1)N1CC(CNc2ccc(F)cc2)C2(C1)CN(c1cc(F)cc(F)c1)C2 (mixture of isomers)
150	N[C@H](C(=O)N1CC(CNc2ccc(F)cc2)C2(C1)CN(c1cc(F)cc(F)c1)C2)c1ccc(O)cc1 (mixture of isomers; form 1)
40	O=C(Cc1cc(F)c(O)c(F)c1)N1CC(CNc2ccc(F)cc2)C2(C1)CN(c1ccc(F)cc1)C2 (racemic)
150	O=C(CN1CCC(O)CC1)N1CC(CNc2ccc(F)cc2)C2(C1)CN(c1ccc(F)cc1)C2 (racemic)

Experiment: Unbound average drug concentration in Balb/c mouse at 20 mg/kg, po measured upto 24 hrs by LC-MS/MS analysis
Format: ADME, organism-based
Settings: in vivo

f(Cave) [nM]	Cave [nM]	SMILES
2	–	O=C(Cc1ccc(O)cc1)N1CC(CNc2ccccc2)C2(C1)CN(c1ccc(F)cc1)C2 (centres undefined)
–	1	Nc1ccc(C[C@@H](N)C(=O)N2CC(CNc3ccc(F)cc3)C3(C2)CN(c2cc(F)cc(F)c2)C3)cc1 (mixture of isomers)
2	–	N[C@H](C(=O)N1CC(CNc2ccc(F)cc2)C2(C1)CN(c1cc(F)cc(F)c1)C2)c1ccc(O)cc1 (mixture of isomers; form 1)
45	–	CC1(C)c2nc(-c3ccc(F)cc3)c(Nc3ccc(F)cc3)n2CCN1C(=O)CN [GANAPLACIDE]
3092	–	CS(=O)(=O)c1ccc(-c2cnc(N)c(-c3ccc(C(F)(F)F)nc3)c2)cc1 [MMV-048]

Experiment: Half life in Balb/c mouse at 3 mg/kg, iv measured upto 24 hrs by LC-MS/MS analysis
Format: ADME, organism-based
Settings: in vivo

half-life [min]	SMILES
240	O=C(Cc1ccc(O)cc1)N1CC(CNc2ccccc2)C2(C1)CN(c1ccc(F)cc1)C2 (centres undefined)
342	Nc1ccc(C[C@@H](N)C(=O)N2CC(CNc3ccc(F)cc3)C3(C2)CN(c2cc(F)cc(F)c2)C3)cc1 (mixture of isomers)
480	N[C@H](C(=O)N1CC(CNc2ccc(F)cc2)C2(C1)CN(c1cc(F)cc(F)c1)C2)c1ccc(O)cc1 (mixture of isomers; form 1)

Experiment: Intrinsic clearance in Balb/c mouse at 3 mg/kg, iv measured upto 24 hrs by LC-MS/MS analysis
Format: ADME, organism-based
Settings: in vivo

CL [L/h/kg]	SMILES
302.5	O=C(Cc1ccc(O)cc1)N1CC(CNc2ccccc2)C2(C1)CN(c1ccc(F)cc1)C2 (centres undefined)
177.5	Nc1ccc(C[C@@H](N)C(=O)N2CC(CNc3ccc(F)cc3)C3(C2)CN(c2cc(F)cc(F)c2)C3)cc1 (mixture of isomers)
129.3	N[C@H](C(=O)N1CC(CNc2ccc(F)cc2)C2(C1)CN(c1cc(F)cc(F)c1)C2)c1ccc(O)cc1 (mixture of isomers; form 1)
32.9	CC1(C)c2nc(-c3ccc(F)cc3)c(Nc3ccc(F)cc3)n2CCN1C(=O)CN [GANAPLACIDE]
1.14	CS(=O)(=O)c1ccc(-c2cnc(N)c(-c3ccc(C(F)(F)F)nc3)c2)cc1 [MMV-048]

Experiment: Half life in mouse liver microsomes at 0.1 uM in presence or absence of NADPH by LC-MS/MS analysis
Format: ADME, Microsome
Settings: not given

half-life at 0.1 µM [min]	SMILES
20	N[C@H](Cc1ccc(O)cc1)C(=O)N1CC(CNc2ccc(F)cc2)C2(C1)CN(c1cc(F)cc(F)c1)C2 (mixture of isomers)
48	N[C@@H](C(=O)N1CC(CNc2ccc(F)cc2)C2(C1)CN(c1cc(F)cc(F)c1)C2)c1ccc(O)cc1 (mixture of isomers)
150	Nc1ccc(C[C@@H](N)C(=O)N2CC(CNc3ccc(F)cc3)C3(C2)CN(c2cc(F)cc(F)c2)C3)cc1 (mixture of isomers)
7	C[C@@H](C(=O)N1CC(CNc2ccc(F)cc2)C2(C1)CN(c1cc(F)cc(F)c1)C2)c1ccc(O)cc1 (mixture of isomers)
11	O=C([C@@H](O)c1ccc(O)cc1)N1CC(CNc2ccc(F)cc2)C2(C1)CN(c1cc(F)cc(F)c1)C2 (mixture of isomers)
10	C[C@H](C(=O)N1CC(CNc2ccc(F)cc2)C2(C1)CN(c1cc(F)cc(F)c1)C2)c1ccc(O)cc1 (mixture of isomers)
4.4	O=C([C@H](O)c1ccc(O)cc1)N1CC(CNc2ccc(F)cc2)C2(C1)CN(c1cc(F)cc(F)c1)C2 (mixture of isomers)
150	N[C@H](C(=O)N1CC(CNc2ccc(F)cc2)C2(C1)CN(c1cc(F)cc(F)c1)C2)c1ccc(O)cc1 (mixture of isomers; form 1)
42	O=C(Cc1cc(F)c(O)c(F)c1)N1CC(CNc2ccc(F)cc2)C2(C1)CN(c1ccc(F)cc1)C2 (racemic)
150	O=C(CN1CCC(O)CC1)N1CC(CNc2ccc(F)cc2)C2(C1)CN(c1ccc(F)cc1)C2 (racemic)
